{
  "source": "patent US8106092B2",
  "about": "“Treatment of solid cancers” (priority 2004, dated 2012)",
  "key": {"Lewis lung-OVA tumors": {"tested_on": "Lewis lung-OVA tumors", "assay": "PEP005-mediated cure of primary Lewis lung-OVA tumors, challenge with secondary Lewis lung-OVA", "type": "in vivo, C57BL/6 mice", "description": "FIGS. 4A to D are graphical representations showing protection against secondary tumors following cure of primary tumors with PEP005. (A) C57BL/6 mice received 5×10^5 Lewis lung-OVA s.c. on the back on day less 7 (d−7). When these primary tumors had reached an average 13.6 mm^2±1.8 SE (range 10-25 mm^2) on d0 they were treated once with 16 μg of PEP005 delivered i.t. In eight mice these primary tumors were cured, and these mice received 5×10^5 Lewis lung-OVA s.c. on d4 on the opposite flank from the primary tumors. The emergence of these secondary tumors was monitored over time (PEP005 cured). In a parallel group of animals (n=5) PEP005 treatment regressed the primary tumors, but after 11-13 days the primary tumors re-emerged. These animals also received secondary tumors as above and their emergence was again monitored over time (PEP005 regressed). Two control groups were included. One group (n=6) received no primary tumors, but was treated s.c. with PEP005 and received secondary tumors on the opposite flank (white triangles, PEP005 s.c.). The second control group (n=8) also received no primary tumors, was not treated with PEP005, and received secondary tumors as above (Controls). […] The experiment in (A) was repeated in Foxnl^nu mice; PEP005 cured (n=4), PEP005 regressed (n=7), Control (n=7). A PEP005 s.c. group was not included. (C) Treatment of primary Lewis lung-OVA with PEP005 induced SIINFEKL-specific CD8^+ T-cell responses using IFNγ ELISPOT when the secondary tumors had emerged or on d50. (D) Reduced growth of B16-OVA lung metastases following successful treatment of s.c. B16-OVA tumors with PEP005. C57BL/6 mice received 5×10^5 B16-OVA s.c. on the back on d−6. When these primary tumors had reached 10-20 mm^2 on d0, they were treated once with 18 μg of PEP005 delivered i.t., which cured the tumors in eight mice (PEP005 cured) and regressed the tumors in five mice (PEP005 regressed). Controls as above. Secondary B16-OVA (10^5) were injected i.v. on d6 and animals were sacrificed on d27 and lung metastases counted.\nB16 and B16 cells stably expressing ovalbumin (B16-OVA)were grown s.c. in C57BL/6 mice as described previously (Ogbourne et al, Cancer Res 64:2833-2839, 2004; Anraku et al, J Virol 76:3791-3799, 2002). Lung metastases were established as described (Zeh et al, J Immunol 162:989-994, 1999). Lewis lung-OVA (Nelson et al, J Immunol 166:5557-5566, 2001) were grown s.c. in C57BL/6 as described (Lenarczyk et al, Vaccine 22:963-974, 2004).\nTumors were treated by topical or intratumoral (i.t.) injection (using a 26 gauge needle) of (i) PEP0005 dissolved in acetone and then RPMI 1640 (final concentration of acetone 4%), or (ii) PEP005 formulated in PEG400. […]"}, "B16 tumors": {"tested_on": "B16 tumors", "assay": "PEP005-mediated cure of primaries plus DC therapy, growth of secondary tumors, B16 model", "type": "in vivo, C57BL/6 mice", "details": "DC p=0.009", "description": "FIGS. 13A to C are graphical representations showing synergistic effects between PEP005-mediated cure of primaries and DC therapy on the growth of secondary tumors and on CD8^+ T-cell induction. (A) On d−3 C57BL/6 mice where inoculated with 2×10^6 B16-OVA cells on the right flank (primary tumor) and 2×10^4 B16-OVA cells on the left flank (secondary tumor). On d0 and d1 the primary B16-OVA tumors, which has reach 30.4 mm^2+SD6 were cured with i.t. injections of 25 μg of PEP005 formulated in PEG400. On d4 and d11 mice received DC therapy using DC2.4 cells pulsed with SVYDFFVWL [SEQ ID NO:1], KVPRNQDWL [SEQ ID NO:4] and SIINFEKL [SEQ ID NO:2] peptides, and ovalbumin (n=12, PEP005+DC). […] A third group was inoculated with secondary tumors only and received the DC therapy (n=14, DC), and the control group was given only secondary tumors and received no treatment (n=18, Control). Animals were culled when the secondary tumors reached 100 mm^2. (B) The experiment in (A) was repeated in the B16 model (n=6 per group). On d−2 C57BL/6 mice were inoculated with 10^6 B16 cells on the right flank (primary tumor) and 5×10^4 cells on the left flank (secondary tumors). […] Animal groups were established and treated as in (A) except that on d12 mice were sacrificed and splenocytes analyzed in an ex vivo ELISPOT assay for responses to SVYDFFVWL [SEQ ID NO:1], KVPRNQDWL [SEQ ID NO:4] and SIINFEKL [SEQ ID NO:2] […]"}},
  "data": [
    {"smiles": "C/C=C(/C)C(=O)O[C@H]1C(C)=C[C@]23C(=O)[C@@H](C=C(CO)[C@@H](O)[C@]12O)[C@H]1[C@@H](C[C@H]3C)C1(C)C", "note": "[PEP005, ingenol-3-angelate]", "values": [
      {"measurement": "growth of secondary tumors", "setting": "Lewis lung-OVA tumors; PEP005 regressed but failed to cure the primary tumors (n=5), not significant", "result": "slightly delayed"},
      {"measurement": "growth of secondary tumors", "setting": "Lewis lung-OVA tumors; no primary tumors, PEP005 s.c. at a site distant from the secondary tumors", "result": "failed to reduce the growth of the secondary tumors"},
      {"measurement": "animals in which secondary tumors failed to appear", "setting": "Lewis lung-OVA tumors; primary tumor cured by i.t. PEP005 (n=8), secondary inoculated d4 on opposite flank", "result": 50, "unit": "%"},
      {"measurement": "emergence of secondary tumors", "setting": "Lewis lung-OVA tumors; primary tumor cured by i.t. PEP005 (n=8), log rank p=0.002", "result": "significantly delayed"},
      {"measurement": "growth of secondaries vs no treatment controls", "setting": "B16 tumors", "result": "did not provide a significant delay of tumor growth"}
    ]}
  ]
}
